{"source": "patent EP0326329B1", "about": "“Quinazoline derivatives useful as insecticides” (Dow AgroSciences LLC, priority 1988, dated 1989)", "assay_type_in_all_cases": "in vivo", "key": {"[1]": {"tested_on": "Erysiphe graminis tritici (powdery mildew)", "assay": "Greenhouse Test 1, foliar spray fungicide screen (POWD MDEW), host wheat", "conditions": "disease control rating, 400 ppm (+++ at 100 ppm)"}, "[2]": {"tested_on": "southern armyworm (Spodopetra eridania Cramer)", "assay": "Mite/insect screen, sprayed squash leaves (SAW)", "conditions": "Spodoptera eridania, percent mortality, read-out: SAW RESULTS %; for mortality at 200 ppm: spray rate 200 ppm; for mortality at 400 ppm: spray rate 400 ppm", "protocol": "(§1) The compounds of Examples 1-203 were tested for miticidal and insecticidal activity in the following mite/insect screen.\n(§2) Each test compound was formulated by dissolving the compound in acetone/alcohol (50:50) mixture containing 23 g of \"TOXIMUL R\" (sulfonate/nonionic emulsifier blend) and 13 g of \"TOXIMUL S\" (sulfonate/nonionic emulsifier blend) per liter. These mixtures were then diluted with water to give the indicated concentrations.\n(§3) Other plants in the same treatment pot were left uninfested. The leaves were then sprayed with 5 ml of test solution using a DeVilbiss atomizing sprayer at 10 psi. Both surfaces of the leaves were covered until runoff, and then allowed to dry for one hour. Two uninfested leaves were then excised and placed into a Petri dish containing larval southern armyworm (Spodopetra eridania Cramer).\n(§4) After standard exposure periods, percent mortality and phytotoxicity were evaluated. […]"}, "[3]": {"tested_on": "Puccinia recondita tritici (leaf rust)", "assay": "Greenhouse Test 1, foliar spray fungicide screen (LEAF RUST), host wheat", "conditions": "disease control rating, 400 ppm (+++ at 100 ppm)"}, "[4]": {"tested_on": "Pyricularia oryzae (rice blast)", "conditions": "disease control rating, foliar spray, host rice; 400 ppm (+++ at 100 ppm)"}, "[5]": {"tested_on": "melon aphids (Aphis gossypii Glover)", "assay": "Mite/insect screen, sprayed squash cotyledons (MA)", "conditions": "Aphis gossypii, percent mortality, read-out: MA RESULTS %; for mortality at 200 ppm: spray rate 200 ppm; for mortality at 400 ppm: spray rate 400 ppm", "protocol": "as §1, §2, §3, §4"}, "[6]": {"tested_on": "Pseudoperonospora cubensis (downy mildew)", "assay": "Greenhouse Test 1, foliar spray fungicide screen (DOWN MDEW), host squash", "conditions": "disease control rating, 400 ppm (+++ at 100 ppm)"}, "[7]": {"tested_on": "Twospotted spider mites (Tetranychus urticae Koch)", "assay": "Mite/insect screen, sprayed squash cotyledons (SM)", "conditions": "Tetranychus urticae, percent mortality, read-out: SM RESULTS %; for mortality at 200 ppm: spray rate 200 ppm; for mortality at 400 ppm: spray rate 400 ppm", "protocol": "as §1, §2, §3, §4"}, "[8]": {"tested_on": "Southern corn rootworm (Diabrotica undecimpuctata howardi Barber)", "assay": "Mite/insect screen, soil treatment (CRW)", "conditions": "Diabrotica, percent mortality, soil treatment, read-out: CRW RESULTS %; for mortality at 12 ppm: CRW rate 12.00 ppm; for mortality at 24 ppm: CRW rate 24.00 ppm", "protocol": "as §1, §2\nActivity on Southern corn rootworm (Diabrotica undecimpuctata howardi Barber) was evaluated by adding two ml of tap water, a presoaked corn seed, and 15 g of dry sandy soil to a one ounce plastic container. The soil was treated with 1 mL of test solution containing a pre-determined concentration of test compound. After six to 12 hours of drying, five 2-3 instar corn rootworm larvae were added to the individual cups, which were then capped and held at 23°C.\nas §4"}, "[9]": {"tested_on": "Botrytis cinerea (gray mold)", "assay": "Greenhouse Test 1, foliar spray fungicide screen (GRAY MOLD), host grape berries", "conditions": "disease control rating, 400 ppm (+++ at 100 ppm)"}}, "data": [{"molecule": "CC(C)c1ccc(CCNc2ncnc3cc(Cl)ccc23)cc1", "note": "[Example 40, 7-chloro-N-[2-[4-(i-propyl)phenyl]ethyl]-4-quinazolinamine]", "values": [{"measurement": "POWD MDEW", "setting": "[1]", "value": "+++ (+++ = 90-100% control at 100 ppm)"}, {"measurement": "mortality at 200 ppm", "setting": "[2]", "value": 40, "unit": "%"}, {"measurement": "mortality at 400 ppm", "setting": "[2]", "value": 0, "unit": "%"}, {"measurement": "LEAF RUST", "setting": "[3]", "value": "+++ (+++ = 90-100% control at 100 ppm)"}, {"measurement": "RICE BLAST", "setting": "[4]", "value": "++ (++ = 90-100% control at 400 ppm)"}, {"measurement": "mortality at 200 ppm", "setting": "[5]", "value": 20, "unit": "%"}, {"measurement": "mortality at 400 ppm", "setting": "[5]", "value": 0, "unit": "%"}, {"measurement": "DOWN MDEW", "setting": "[6]", "value": "+++ (+++ = 90-100% control at 100 ppm)"}, {"measurement": "mortality at 200 ppm", "setting": "[7]", "value": 80, "unit": "%"}, {"measurement": "mortality at 400 ppm", "setting": "[7]", "value": 90, "unit": "%"}, {"measurement": "mortality at 12 ppm", "setting": "[8]", "value": 0, "unit": "%"}, {"measurement": "mortality at 24 ppm", "setting": "[8]", "value": 0, "unit": "%"}, {"measurement": "GRAY MOLD", "setting": "[9]", "value": "- (- = 0-19% control at 400 ppm)"}]}, {"molecule": "CCC(COc1ncnc2ccccc12)c1ccc(-c2ccccc2)cc1", "note": "(stereo not shown) [Example 142, 4-[2-(1,1'-biphenyl)-4-ylbutoxy]quinazoline]", "values": [{"measurement": "POWD MDEW", "setting": "[1]", "value": "+ (+ = 20-89% control at 400 ppm)"}, {"measurement": "mortality at 400 ppm", "setting": "[2]", "value": 0, "unit": "%"}, {"measurement": "LEAF RUST", "setting": "[3]", "value": "+ (+ = 20-89% control at 400 ppm)"}, {"measurement": "RICE BLAST", "setting": "[4]", "value": "++ (++ = 90-100% control at 400 ppm)"}, {"measurement": "mortality at 400 ppm", "setting": "[5]", "value": 30, "unit": "%"}, {"measurement": "DOWN MDEW", "setting": "[6]", "value": "- (- = 0-19% control at 400 ppm)"}, {"measurement": "mortality at 400 ppm", "setting": "[7]", "value": 60, "unit": "%"}, {"measurement": "mortality at 24 ppm", "setting": "[8]", "value": 0, "unit": "%"}, {"measurement": "GRAY MOLD", "setting": "[9]", "value": "- (- = 0-19% control at 400 ppm)"}]}, {"molecule": "COc1cc(CCOc2ncnc3ccccc23)ccc1O", "note": "[Example 147]", "values": [{"measurement": "POWD MDEW", "setting": "[1]", "value": "+++ (+++ = 90-100% control at 100 ppm)"}, {"measurement": "mortality at 200 ppm", "setting": "[2]", "value": 0, "unit": "%"}, {"measurement": "mortality at 400 ppm", "setting": "[2]", "value": 0, "unit": "%"}, {"measurement": "LEAF RUST", "setting": "[3]", "value": "+++ (+++ = 90-100% control at 100 ppm)"}, {"measurement": "RICE BLAST", "setting": "[4]", "value": "- (- = 0-19% control at 400 ppm)"}, {"measurement": "mortality at 200 ppm", "setting": "[5]", "value": 50, "unit": "%"}, {"measurement": "mortality at 400 ppm", "setting": "[5]", "value": 0, "unit": "%"}, {"measurement": "DOWN MDEW", "setting": "[6]", "value": "+++ (+++ = 90-100% control at 100 ppm)"}, {"measurement": "mortality at 200 ppm", "setting": "[7]", "value": 0, "unit": "%"}, {"measurement": "mortality at 400 ppm", "setting": "[7]", "value": 0, "unit": "%"}, {"measurement": "mortality at 12 ppm", "setting": "[8]", "value": 0, "unit": "%"}, {"measurement": "mortality at 24 ppm", "setting": "[8]", "value": 0, "unit": "%"}, {"measurement": "GRAY MOLD", "setting": "[9]", "value": "- (- = 0-19% control at 400 ppm)"}]}, {"molecule": "CC(C)(C)c1ccc(CCCCOc2ncnc3ccccc23)cc1", "note": "[Example 178, 4-[4-[4-(t-butyl)phenyl]butoxy]quinazoline]", "values": [{"measurement": "POWD MDEW", "setting": "[1]", "value": "++ (++ = 90-100% control at 400 ppm)"}, {"measurement": "mortality at 200 ppm", "setting": "[2]", "value": 0, "unit": "%"}, {"measurement": "mortality at 400 ppm", "setting": "[2]", "value": 0, "unit": "%"}, {"measurement": "LEAF RUST", "setting": "[3]", "value": "- (- = 0-19% control at 400 ppm)"}, {"measurement": "RICE BLAST", "setting": "[4]", "value": "- (- = 0-19% control at 400 ppm)"}, {"measurement": "mortality at 200 ppm", "setting": "[5]", "value": 80, "unit": "%"}, {"measurement": "mortality at 400 ppm", "setting": "[5]", "value": 100, "unit": "%"}, {"measurement": "DOWN MDEW", "setting": "[6]", "value": "+ (+ = 20-89% control at 400 ppm)"}, {"measurement": "mortality at 200 ppm", "setting": "[7]", "value": 40, "unit": "%"}, {"measurement": "mortality at 400 ppm", "setting": "[7]", "value": 100, "unit": "%"}, {"measurement": "mortality at 12 ppm", "setting": "[8]", "value": 0, "unit": "%"}, {"measurement": "mortality at 24 ppm", "setting": "[8]", "value": 0, "unit": "%"}, {"measurement": "GRAY MOLD", "setting": "[9]", "value": "+ (+ = 20-89% control at 400 ppm)"}]}, {"molecule": "FC(F)(F)c1ccc(CCOc2ncnc3ccccc23)cc1", "note": "[Example 134, 4-[2-[4-(trifluoromethyl)phenyl]ethoxy]quinazoline]", "values": [{"measurement": "POWD MDEW", "setting": "[1]", "value": "+++ (+++ = 90-100% control at 100 ppm)"}, {"measurement": "mortality at 200 ppm", "setting": "[2]", "value": 60, "unit": "%"}, {"measurement": "mortality at 400 ppm", "setting": "[2]", "value": 100, "unit": "%"}, {"measurement": "LEAF RUST", "setting": "[3]", "value": "+++ (+++ = 90-100% control at 100 ppm)"}, {"measurement": "RICE BLAST", "setting": "[4]", "value": "+++ (+++ = 90-100% control at 100 ppm)"}, {"measurement": "mortality at 200 ppm", "setting": "[5]", "value": 100, "unit": "%"}, {"measurement": "mortality at 400 ppm", "setting": "[5]", "value": 100, "unit": "%"}, {"measurement": "mortality at 200 ppm", "setting": "[7]", "value": 90, "unit": "%"}, {"measurement": "mortality at 400 ppm", "setting": "[7]", "value": 100, "unit": "%"}, {"measurement": "mortality at 12 ppm", "setting": "[8]", "value": 0, "unit": "%"}, {"measurement": "mortality at 24 ppm", "setting": "[8]", "value": 0, "unit": "%"}]}, {"molecule": "c1ccc2c(c1)Cc1cc(CCOc3ncnc4ccccc34)ccc1-2", "note": "[Example 20, 4-[2-(9H-fluoren-2-yl)ethoxy]quinazoline]", "values": [{"measurement": "POWD MDEW", "setting": "[1]", "value": "++ (++ = 90-100% control at 400 ppm)"}, {"measurement": "mortality at 400 ppm", "setting": "[2]", "value": 60, "unit": "%"}, {"measurement": "LEAF RUST", "setting": "[3]", "value": "+ (+ = 20-89% control at 400 ppm)"}, {"measurement": "RICE BLAST", "setting": "[4]", "value": "++ (++ = 90-100% control at 400 ppm)"}, {"measurement": "mortality at 400 ppm", "setting": "[5]", "value": 100, "unit": "%"}, {"measurement": "DOWN MDEW", "setting": "[6]", "value": "+ (+ = 20-89% control at 400 ppm)"}, {"measurement": "mortality at 400 ppm", "setting": "[7]", "value": 100, "unit": "%"}, {"measurement": "mortality at 24 ppm", "setting": "[8]", "value": 100, "unit": "%"}]}]}
